Where a SMILES comes first, the peptide text is derived from it. The star is where a group is joined. Cbz = O=C(OCc1ccccc1)*; CH2F = FC*
Experiments:
[1] = test system: SNU182, SNU475 and SNU449 HCC cell lines; assay: Detection and quantitation of apoptosis in SNU449, SNU182 and SNU475 HCC cell lines; assay type: cell-based; settings: for staurosporine-induced apoptosis: 1 μM, 5 hours; for cisplatin-induced apoptosis: 5 μM, 24 hours
Method: Detection and quantitation of apoptosis: Apoptosis was quantitated by assessing nuclear changes indicative of apoptosis (i.e., chromatin condensation and nuclear fragmentation) using the DNA binding dye DAPI as described by Roberts et al. (supra). Cells were seeded in 35-mm plates at 2×10^5 cells per well. After incubation for 24 hours, the plates were washed, changed to serum free medium containing 1 μM staurosporine, and incubated for 5 hours at 37° C. Five micrograms of DAPI were added and the plates were incubated for 20 minutes at room temperature in the dark. The cells were then examined by fluorescence microscopy (Nikon Eclipse TE200; […] For each treatment, at least 300 cells in six different high-power fields were counted. […] For experiments using cisplatin, cells cultured in medium with 10% serum were treated with or without 5 μM cisplatin for 24 hours, then stained with DAPI and counted. Flow cytometry also was used to evaluate apoptosis. After a 5 hour treatment with 1 μM staurosporine as described above, cells were collected by centrifugation and washed twice in ice-cold PBS with 3% heat-inactivated FBS and 0.02% sodium azide. Cells were stained with 50 μg/ml 7-AAD for 15 minutes in the dark. The cells were resuspended in 500 μl PBS and analyzed using a FACScan analyzer (BD Bioscience). Apoptotic cells were calculated as percent of 7-AAD positive cells in 5,000 or more cells per sample. Immunoblot analysis for mitochondrial cytochrome c release: Immunoblot analysis for cytochrome c utilized cytosolic extracts prepared by selective digitonin permeabilization (Leist et al. (1998) Mol. Pharmacol. 54:789-801). Blots were probed with mouse monoclonal anti-cytochrome c antibody (BD Pharmingen) or mouse anti-β-actin antibody. For caspase 9, whole-cell lysates were prepared as described above for the sulfatase assay. Membranes were probed with mouse anti-procaspase 9 or mouse anti-β-actin antibody. Immunoblots were developed using ECL enhanced chemiluminescence reagents after incubation with horseradish peroxidase-conjugated secondary antibodies.

OV207 clones = assay: Drug sensitivity of OV207 clones transfected with HSulf-1; assay type: cell-based
SKOV3 cells = assay: Analysis of apoptosis (DAPI fluorescence microscopy, DNA fragmentation, 7-AAD flow cytometry, cytochrome c) in SKOV3 cells; assay type: cell-based; parameters: apoptosis, % of cells: dose or concentration left out as unconfirmed
Method: Analysis of Apoptosis: […] HSulf-1 transfected SKOV3 cells were seeded in 35-mm plates at a density of 2×10^5 cells/well. After incubation at 37° C. for 24 hours, the plates were washed and changed to serum-free medium. Staurosporine was added to a final concentration of 1 μm for 5 hours. DAPI was then added to each well. After a 20 minute incubation at room temperature in the dark, cells were examined by fluorescence microscopy (Nikon Eclipse TE200; Nikon Corp., Tokyo, Japan) using excitation and emission filters of 380 and 430 nm. An individual blinded to the experimental conditions counted at least 300 cells in six different high-power fields for each treatment. Each treatment was repeated at least three times in triplicate. […] The significance of differences between experimental variables was determined using the Student t test. DNA Fragmentation: Parental, vector and stable HSulf-1 clones 3 and 6 were treated with 1 μM staurosporine at 37° C. for 5 hours. Control or treated cells (5×10^5 cells) were harvested with trypsin and centrifuged. DNA was extracted using the Qiagen […]® kit. Aliquots containing 5 μg of DNA were resolved on a 1.5% agarose gel containing 0.5 μg/ml ethidium bromide and visualized under UV light. Flow Cytometry: After treatment with 1 μM staurosporine for 5 hours as described above, cells were washed twice in ice cold PBS containing 3% heat-inactivated fetal bovine serum and 0.02% sodium azide, stained with 7-aminoactinomycin D (7-AAD; 50 μg/ml) for 15 minutes in the dark, resuspended in 500 μl PBS, and subjected to flow cytometry on a FACScan analyzer (BD Bioscience, San Jose, Calif.). After analysis of 10,000 events, the percentage of 7-AAD positive cells was determined. Analysis of Cytosolic Cytochrome c: Parental SKOV3, stable clones of SKOV3-vector, and SKOV3-HSulf-1 clones 3 and 6 were treated with staurosporine as described above, washed in PBS, and incubated for 30 seconds in lysis buffer consisting of 210 mM D-mannitol, 70 mM sucrose, 10 mM HEPES, 5 mM sodium succinate, 0.2 mM EGTA, 0.15% BSA and 80 μg/ml digitonin. After sedimentation at 12,000×g for 1 minute, the supernatant was diluted with an equal volume of 2×sample buffer. The protein samples were quantified, resolved on a 12% SDS-PAGE gel, and subjected to immunoblot analysis as described below using anti-cytochrome c (mouse monoclonal; BD Pharmingen, San Diego, Calif.) at a dilution of 1:500.

012SCC cells = assay: Analysis of apoptosis (DAPI, 7-AAD flow cytometry) in 012SCC cells; assay type: cell-based; settings: 1 μM, 5 hours
Method: Analysis of Apoptosis: Apoptosis was quantitated by assessing the number of cells containing nuclear changes indicative of apoptosis (chromatin condensation and nuclear fragmentation) after staining with DAPI. HSulf-1 transfected 012SCC cells were seeded in 35-mm plates at a density of 2×10^5 cells/well. After incubation at 37° C. for 24 hours, the plates were washed and changed to serum-free medium. […] After a 5 hour incubation for staurosporine and a 24 hour incubation for cisplatin at 37° C., DAPI was added to each well at a final concentration of 5 μg/ml. After a 20 minutes incubation in the dark at 37° C., cells were examined by fluorescence microscopy (Nikon Eclipse TE200; Nikon Corp., Tokyo, Japan) using excitation and emission filters of 380 and 430 nm. An individual blinded to the experimental conditions counted at least 300 cells in six different high-power fields for each treatment. Each treatment was repeated at least three times, performed in triplicate each time. The significance of differences between experimental variables was determined using the Student t test. Detection of Apoptosis by Flow Cytometry: HSulf-1-1 or vector transfected 012SCC cells were collected by centrifugation from untreated control and staurosporine treated cells. […] The cells were then resuspended in 500 μl of PBS and analyzed by FACScan (BD Bioscience). […]

xenografts = settings: in vivo, previous studies; cited from earlier work
cancer cells = settings: previous studies; cited from earlier work
[2] = test system: Hep3B and Huh-7-derived clones; assay: Cisplatin-induced apoptosis in Hep3B and Huh-7 derived clones; assay type: cell-based; settings: hSulf1-transfected vs Vector stable clones; 5 μM cisplatin
Method: Detection and quantitation of apoptosis: Apoptosis was quantitated by assessing nuclear changes indicative of apoptosis (i.e., chromatin condensation and nuclear fragmentation) using the DNA binding dye DAPI as described by Roberts et al. (supra). Cells were seeded in 35-mm plates at 2×10^5 cells per well. After incubation for 24 hours, the plates were washed, changed to serum free medium containing 1 μM staurosporine, and incubated for 5 hours at 37° C. Five micrograms of DAPI were added and the plates were incubated for 20 minutes at room temperature in the dark. The cells were then examined by fluorescence microscopy (Nikon Eclipse TE200; […] For each treatment, at least 300 cells in six different high-power fields were counted. […] For experiments using cisplatin, cells cultured in medium with 10% serum were treated with or without 5 μM cisplatin for 24 hours, then stained with DAPI and counted.

hSulf1 expression = assay: Treatment with DNA methylation inhibitor, semi-quantitative RT-PCR of hSulf1; assay type: cell-based; settings: SNU449 and Huh-7 cell lines; increasing concentrations (0, 5, or 10 μM), 5 days
Method: Isolation of total RNA, semi-quantitative RT-PCR, and quantitative real-time PCR: Total RNA was extracted from 31 pairs of matched HCCs and adjacent benign liver tissue and the 11 HCC cell lines using the RNEASY® kit (Qiagen). cDNA synthesis was performed using SUPERSCRIPT® II RNase H reverse transcriptase (Invitrogen/Life Technologies) to transcribe 1-5 μg of total RNA primed with 1 μl of 500 μg/ml random hexamers. Primers used for semi-quantitative RT-PCR were: hSulf1-F (5′-[…]-3′; […]) and hSulf1-R (5′-[…]-3′; SEQ ID NO:14), yielding an 826 bp PCR product; GAPDH-F (5′-[…]-3′; SEQ ID NO:15) and GAPDH-R (5′-[…]-3′; SEQ ID NO:16). […] For quantitative real-time PCR analysis of HCC tumors, the hSulf1 primers were hSulf1RT-F (5′- […]-3′; SEQ ID NO:39) and hSulf1RT-R (5′-[…]-3′; SEQ ID NO:40), yielding a 379 bp PCR product. Real-time PCR was performed according to the manufacturer's recommendation in a Roche LightCycler using the following profile: 95° C. for 90 seconds followed by 34 cycles of 0 seconds at 95° C., 10 seconds at 61° C., and 20 seconds at 72° C. hSulf1 mRNA levels were normalized by comparison to 18S ribosomal RNA levels measured in the same samples. […]
Treatment with the DNA methylation inhibitor, 5-aza-2′-deoxycytidine. […] RNA (2 μg) was reverse transcribed as described above and semi-quantitative RT-PCR performed as described. […]

SMILES: COC(=O)CC(NC(=O)C(C)NC(=O)C(NC(=O)OCc1ccccc1)C(C)C)C(=O)CF (stereo not drawn) [Z-VAD(O-Me)-fmk, N-(N^α-benzyloxycarbonylvalinylalanyl) aspartic acid (O-methyl ester) fluoromethylketone] (Cbz-Val-Ala-Asp(OMe)-CH2F; configuration not given here)
- effect on staurosporine-induced apoptosis ([1]; 40 μM pretreatment for 1 hour before staurosporine): inhibited staurosporine-induced apoptosis

SMILES: CN[C@@H]1C[C@H]2O[C@@](C)([C@@H]1OC)n1c3ccccc3c3c4c(c5c6ccccc6n2c5c31)C(=O)NC4 [staurosporine]
- sensitivity to drug (OV207 clones): increased sensitivity
- staurosporine-induced apoptosis ([1]; SNU182 and SNU475 (high hSulf1-expressing)): large increase in apoptosis
- staurosporine-induced apoptosis ([1]; hSulf1 negative parental SNU449 and SNU449-Vector): minimal sensitivity
- staurosporine-induced apoptosis ([1]; three hSulf1-transfected SNU449 clones): high sensitivity
- induction of apoptosis (SKOV3 cells; SKOV3 clones stably transfected with HSulf-1, 1 μM, 5 hours): markedly enhanced caspase-dependent apoptosis
- induction of apoptosis (SKOV3 cells; parental or vector-transfected SKOV3, 1 μM, 5 hours): no induction of apoptosis
- apoptosis, % of cells (012SCC cells; HSulf-1-transfected cells): 40%
- induction of apoptosis (012SCC cells; parental or vector-transfected cells): little apoptosis

SMILES: COc1cc2ncnc(Nc3ccc(F)c(Cl)c3)c2cc1OCCCN1CCOCC1 [Iressa]
- response of xenografts to combination (xenografts): enhance response of xenografts to cisplatin or paclitaxel
- sensitization to chemotherapeutic drugs in vitro (cancer cells): sensitizes cancer cells to cisplatin, paclitaxel and topotecan

SMILES: N.N.[Cl][Pt][Cl] [cisplatin]
- sensitivity to drug (OV207 clones): increased sensitivity
- cisplatin-induced apoptosis ([1]; SNU182 and three hSulf1-transfected stable clones): high sensitivity
- cisplatin-induced apoptosis ([1]; parental SNU449 and SNU449-Vector): resistant
- apoptosis, % of cells (SKOV3 cells; HSulf-1-transfected cells, cisplatin, 24 hours): 25-40%
- induction of apoptosis (SKOV3 cells; parental or vector-transfected cells, cisplatin, 24 hours): little apoptosis
- cisplatin-induced apoptosis [2]: increasing sensitivity

SMILES: Nc1ncn([C@H]2C[C@H](O)[C@@H](CO)O2)c(=O)n1 [5-aza-2′-deoxycytidine]
- hSulf1 expression (hSulf1 expression): reactivation of hSulf1 expression

SMILES: COc1cccc(-c2cc(=O)c3ccccc3o2)c1N [PD98059]
- sensitization to chemotherapeutic drugs in vitro (cancer cells): sensitizes a variety of cell lines, including ovarian cancer cell lines, to cisplatin and paclitaxel

— US20060100153A1, “HSulf-1 nucleic acids, polypeptides and methods of using” (Mayo Foundation for Medical Education and Research, a …, priority 2003, published 2006)
